Reference: US6642392B1 (priority 1997, dated 2003)
Read-outs that look alike come from different tables or passages of the source.

How the values were obtained:
Type in all cases: in vivo
Pyricularia oryzae = conditions: for Test C disease control rating (100 = 100% disease control, 0 = no disease control): rice seedlings sprayed to run-off, inoculated the following day, rating relative to controls, unmarked compounds (standard test rate); for Test C disease control rating: rice blast
Botrytis cinerea = experiment: Test E: gray mold, preventive spray on cucumber seedlings; conditions: for Test E disease control rating (100 = 100% disease control, 0 = no disease control): cucumber seedlings sprayed to run-off, inoculated the following day, rating relative to controls, unmarked compounds (standard test rate); for Test E disease control rating: gray mold on cucumber
How it was run: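 Compounds in 3% acetone were suspended with 250 ppm Trem 014 surfactant and sprayed to run-off on cucumber seedlings. B. cinerea spores were inoculated next day, then 48 h saturated humidity at 20° C and 5 days at 20° C. Disease control rated 0–100% versus controls.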

Phytophthora infestans = conditions: for Test D disease control rating (100 = 100% disease control, 0 = no disease control): tomato seedlings sprayed to run-off, inoculated the following day, rating relative to controls, unmarked compounds (standard test rate); for Test D disease control rating: tomato late blight
[1] = system: Eiysiphe graminis f. sp. tritici; experiment: Test A: wheat powdery mildew, preventive spray on wheat seedlings; conditions: for Test A disease control rating (100 = 100% disease control, 0 = no disease control): wheat seedlings sprayed to run-off, inoculated the following day, rating relative to controls, unmarked compounds (standard test rate); for Test A disease control rating: wheat powdery mildew
How it was run: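 Compounds (3% acetone, 250 ppm Trem 014) sprayed to run-off on wheat seedlings, inoculated next day with spore dust. Incubated 7 days at 20° C before disease rating, 0–100% control relative to untreated controls.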

Puccinia recondita = experiment: Test B: wheat leaf rust, preventive spray on wheat seedlings; conditions: for Test B disease control rating (100 = 100% disease control, 0 = no disease control): wheat seedlings sprayed to run-off, inoculated the following day, rating relative to controls, unmarked compounds (standard test rate); for Test B disease control rating: wheat leaf rust
How it was run: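 Wheat seedlings were sprayed to run-off with compound (3% acetone, 250 ppm Trem 014), then inoculated with P. recondita spores the next day. They were held 24 h saturated at 20 °C, then 6 days at 20 °C. Ratings are 0–100% disease control versus controls.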

[2] = 100 = 100% disease control, 0 = no control, unmarked entries (standard test concentration)
[3] = 100 = 100% disease control, 0 = no control relative to controls, unmarked entries (standard test concentration)

Row | SMILES | Test C disease control rating (100 = 100% disease control, 0 = no disease control) (Pyricularia oryzae) | Test E disease control rating (100 = 100% disease control, 0 = no disease control) (Botrytis cinerea) | Test D disease control rating (100 = 100% disease control, 0 = no disease control) (Phytophthora infestans) | Test A disease control rating (100 = 100% disease control, 0 = no disease control) [1] | Test B disease control rating (100 = 100% disease control, 0 = no disease control) (Puccinia recondita) | also measured
1 | CCC1(C(=O)NCC(C)=Cc2ccccc2)C(C)C1(Cl)Cl (stereo not shown) [compound 265] | 91% | 0% | 96% | 77% | 0% | –
2 | C=CCC(C#N)C(=O)NC(C)C(Oc1cc(F)ccc1F)c1ccccc1 (mixture of isomers) [compound 283] | 99% | 0% | 0% | 0% | 0% | –
3 | CCC1(C(=O)NC(C)COc2cccc(F)c2)C(C)C1(Cl)Cl (mixture of isomers) [79b] | – | – | – | – | – | Test C disease control rating (Pyricularia oryzae; tested at 40 ppm): 100%; Test E disease control rating (Botrytis cinerea; tested at 40 ppm): 0%; Test D disease control rating (Phytophthora infestans; tested at 40 ppm): 0%; Test A disease control rating ([1]; tested at 40 ppm): 0%; Test B disease control rating (Puccinia recondita; tested at 40 ppm): 0%
4 | CC(C)C(C#N)C(=O)NC(C)C(Oc1ccccc1C#N)c1ccccc1 (mixture of isomers) [compound 290] | 90% | 0% | 0% | 59% | 0% | –
5 | CCC1(C(=O)NCC=C(C)c2cc(Cl)ccc2Cl)C(C)C1(Cl)Cl (stereo not shown) [compound 271] | 94% | 0% | 96% | 77% | 0% | –
6 | C=C(F)C(C)(C)C(C#N)C(=O)NC(C)COc1cc(F)ccc1F (mixture of isomers) [compound 217] | 99% | 0% | 0% | 0% | 0% | –
7 | CCC1(C(=O)NC(C)COc2c(F)ccc(F)c2C#N)C(C)C1(Cl)Cl (mixture of isomers) [compound 258] | 94% | 0% | 0% | 74% | 27% | –
8 | C[C@H](COc1ccc(F)c(Cl)c1)NC(=O)C(C#N)C(C)(C)C (single isomer, unassigned) [183a] | – | – | – | – | – | Test C disease control rating (Pyricularia oryzae; [2]): 86%; Test E disease control rating (Botrytis cinerea; [2]): 0%; Test D disease control rating (Phytophthora infestans; [2]): 35%; Test A disease control rating [1, 3]: 0%; Test B disease control rating (Puccinia recondita; [2]): 28%
9 | C#Cc1ccccc1OCC(C)NC(=O)C(C#N)C(C)(C)C (mixture of isomers) [compound 216] | 99% | 45% | 9% | 0% | 0% | –
10 | CCC1(C(=O)NC(C)COc2ccc(F)cc2)C(C)C1(Cl)Cl (mixture of isomers) [80b] | – | – | – | – | – | Test C disease control rating (Pyricularia oryzae; tested at 40 ppm): 97%; Test E disease control rating (Botrytis cinerea; tested at 40 ppm): 0%; Test D disease control rating (Phytophthora infestans; tested at 40 ppm): 0%; Test A disease control rating ([1]; tested at 40 ppm): 83%; Test B disease control rating (Puccinia recondita; tested at 40 ppm): 0%
11 | Cc1cccc(C#N)c1OCC(C)NC(=O)C(C#N)C(C)(C)C (mixture of isomers) [compound 209] | – | – | – | – | – | Test C disease control rating (Pyricularia oryzae; [2]): 86%; Test E disease control rating (Botrytis cinerea; [2]): 0%; Test D disease control rating (Phytophthora infestans; [2]): 0%; Test A disease control rating [1, 3]: 0%; Test B disease control rating (Puccinia recondita; [2]): 0%
